{
  "source": "paper PMC9917443",
  "about": "(eLife, 2023)",
  "key": {"[1]": {"tested_on": "eEPSCs of CA1 pyramidal neurons", "experiment": "eEPSC amplitudes in CA1 pyramidal neurons of acute hippocampal slices", "set-up": "species or system mouse", "conditions": "APP17 250 nM or baclofen 20 µM, Cs^+-based intracellular solution", "method": "GB1a/2 receptors are abundant at axon terminals where they inhibit neurotransmitter release ([Vigot et al., 2006]). […] A GBR antagonist blocked the effect of APP17 on the mEPSC frequency, supporting a GBR-dependent mechanism. […] We additionally studied whether APP17 at 250 nM influences eEPSC amplitudes in acute hippocampal slices. Postsynaptic GBR-activated K^+ currents were blocked with a Cs^+-based intracellular solution, which allowed to specifically monitor the activity of presynaptic GBRs.\nNeuronal cultures and HEK293T cells were prepared as described ([Dinamarca et al., 2019]). Coverslips with hippocampal neurons (DIV 12–15) or HEK293T cells were transferred to a chamber containing a low-K^+ bath solution (in mM): 145 NaCl, 4 KCl, 5 HEPES, 5.5 D-glucose, 1 MgCl2, and 1.8 CaCl2 (pH 7.4 adjusted with NaOH). Recordings were performed at room temperature using borosilicate pipettes of 3–5 MΩ resistance tips, filled with K-gluconate-based pipette solution (in mM): 150 K-gluconate, 1.1 EGTA, 10 HEPES, 10 Tris-phosphocreatine, 0.3 NaGTP, and 4 MgATP (pH 7.2 adjusted with KOH). […] Evoked EPSCs were recorded at –60 mV with a Cs^+-based intracellular solution. […] We recorded mEPSCs in primary neuronal cultures established from embryonic (E15–17) murine hippocampus at DIV13–16 in the presence of 0.5 μM TTX at room temperature ([Dinamarca et al., 2019]). […]"}, "GB1a/2 receptors [2]": {"molecular_target": "T1, GB1a/2 receptors (Homo sapiens, UniProt O75899+Q9UBS5)", "T1 sequence (Q9UBS5 15-961 limits assumed)": "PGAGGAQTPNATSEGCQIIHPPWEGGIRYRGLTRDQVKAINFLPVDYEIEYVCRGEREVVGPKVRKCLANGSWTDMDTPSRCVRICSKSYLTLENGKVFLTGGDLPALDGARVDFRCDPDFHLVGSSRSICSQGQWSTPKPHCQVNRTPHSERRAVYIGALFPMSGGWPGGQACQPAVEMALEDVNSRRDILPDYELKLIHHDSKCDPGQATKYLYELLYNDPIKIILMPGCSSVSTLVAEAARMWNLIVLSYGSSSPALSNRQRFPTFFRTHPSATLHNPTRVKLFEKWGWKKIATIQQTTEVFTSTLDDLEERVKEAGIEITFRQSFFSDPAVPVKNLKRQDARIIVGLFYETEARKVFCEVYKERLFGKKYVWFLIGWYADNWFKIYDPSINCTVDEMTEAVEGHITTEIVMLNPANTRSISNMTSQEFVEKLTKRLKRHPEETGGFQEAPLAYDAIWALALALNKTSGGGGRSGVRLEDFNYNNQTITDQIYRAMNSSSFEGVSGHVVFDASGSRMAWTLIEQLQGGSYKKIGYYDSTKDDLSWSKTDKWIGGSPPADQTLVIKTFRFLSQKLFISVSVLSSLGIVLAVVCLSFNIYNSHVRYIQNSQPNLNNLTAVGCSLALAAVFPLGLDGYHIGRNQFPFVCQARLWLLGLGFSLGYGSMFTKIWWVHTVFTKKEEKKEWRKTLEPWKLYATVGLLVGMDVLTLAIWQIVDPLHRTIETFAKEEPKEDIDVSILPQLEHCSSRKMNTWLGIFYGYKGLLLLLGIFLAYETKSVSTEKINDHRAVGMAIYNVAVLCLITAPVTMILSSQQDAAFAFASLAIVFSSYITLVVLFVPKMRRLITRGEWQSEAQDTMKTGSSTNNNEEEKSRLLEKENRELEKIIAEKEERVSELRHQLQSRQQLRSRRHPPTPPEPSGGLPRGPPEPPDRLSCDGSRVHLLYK", "T1 sequence (O75899 42-941 partner)": "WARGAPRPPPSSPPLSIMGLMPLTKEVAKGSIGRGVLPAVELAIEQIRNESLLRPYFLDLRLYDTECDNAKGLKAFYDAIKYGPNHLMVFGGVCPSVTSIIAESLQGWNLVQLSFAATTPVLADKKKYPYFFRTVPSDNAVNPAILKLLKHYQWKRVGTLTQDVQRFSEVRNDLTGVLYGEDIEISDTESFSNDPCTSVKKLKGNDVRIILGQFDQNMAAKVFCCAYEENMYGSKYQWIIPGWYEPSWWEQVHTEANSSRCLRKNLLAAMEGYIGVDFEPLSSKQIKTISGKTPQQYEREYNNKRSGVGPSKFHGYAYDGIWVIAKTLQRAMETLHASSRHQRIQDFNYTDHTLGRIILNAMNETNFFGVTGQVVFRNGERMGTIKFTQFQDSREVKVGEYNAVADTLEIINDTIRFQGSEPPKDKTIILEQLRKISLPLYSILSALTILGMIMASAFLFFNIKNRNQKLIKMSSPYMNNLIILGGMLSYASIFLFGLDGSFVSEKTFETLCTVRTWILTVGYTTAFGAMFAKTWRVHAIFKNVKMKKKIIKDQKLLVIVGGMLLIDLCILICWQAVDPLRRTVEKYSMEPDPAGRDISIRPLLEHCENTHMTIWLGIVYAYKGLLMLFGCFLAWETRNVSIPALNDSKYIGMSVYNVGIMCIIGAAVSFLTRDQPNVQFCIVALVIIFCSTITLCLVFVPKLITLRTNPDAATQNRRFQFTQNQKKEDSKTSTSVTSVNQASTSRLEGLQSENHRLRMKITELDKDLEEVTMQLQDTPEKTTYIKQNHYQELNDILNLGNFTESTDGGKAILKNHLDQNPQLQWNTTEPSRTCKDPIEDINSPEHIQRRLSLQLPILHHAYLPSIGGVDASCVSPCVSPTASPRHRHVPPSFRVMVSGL", "experiment": "inter-subunit FRET conformational sensor (HA-GB1a-ACP / Flag-SNAP-GB2) in HEK293T cells", "conditions": "for Fig. 2c value, 10mM GABA / Fig. 2c value, Basal: + Vehicle Basal given as 100; for Fig. 2c value, Basal: Basal (no GABA)"}, "[3]": {"tested_on": "GBR-activated K^+ currents in cultured hippocampal neurons", "experiment": "K^+ currents in cultured hippocampal neurons (patch-clamp)", "assay_type": "cell-based, mouse", "method": "APP17 signaling through native GBRs may depend on protein-protein interactions that are not preserved in the membrane preparations used for the [^35S]GTPγS binding assay. Therefore, we tested whether APP17 influences GBR-mediated Gβγ signaling to K^+ channels in cultured hippocampal neurons using patch-clamp electrophysiology, which preserves the native environment of receptors ([Schuler et al., 2001]; [Vigot et al., 2006]). […] . Neuronal cultures and HEK293T cells were prepared as described ([Dinamarca et al., 2019]). Coverslips with hippocampal neurons (DIV 12–15) or HEK293T cells were transferred to a chamber containing a low-K^+ bath solution (in mM): 145 NaCl, 4 KCl, 5 HEPES, 5.5 D-glucose, 1 MgCl2, and 1.8 CaCl2 (pH 7.4 adjusted with NaOH). Recordings were performed at room temperature using borosilicate pipettes of 3–5 MΩ resistance tips, filled with K-gluconate-based pipette solution (in mM): 150 K-gluconate, 1.1 EGTA, 10 HEPES, 10 Tris-phosphocreatine, 0.3 NaGTP, and 4 MgATP (pH 7.2 adjusted with KOH). Upon achieving whole-cell access, cells were held in voltage-clamp mode at −70 mV (with no correction for liquid junction potential) and baclofen-induced K^+ currents were induced in a high-K^+ bath solution (in mM): 120 NaCl, 25 KCl, 5 HEPES, 5.5 D-glucose, 1 MgCl2, and 1.8 CaCl2 (pH 7.4 adjusted with NaOH). […] Schaffer collaterals were stimulated at 0.1 Hz with brief current pulses via bipolar Pt/Ir wires. Evoked EPSCs were recorded at –60 mV with a Cs^+-based intracellular solution. Baclofen and peptides were bath applied in standard ACSF at room temperature. We recorded mEPSCs in primary neuronal cultures established from embryonic (E15–17) murine hippocampus at DIV13–16 in the presence of 0.5 μM TTX at room temperature ([Dinamarca et al., 2019]). APP17 (250 nM) and (R)-baclofen (30 μM) were applied via superfusion. Template matching with pClamp 10 software (Molecular Devices) was used to detect individual mEPSCs."}, "GB1a/2 receptors [4]": {"molecular_target": "T1, GB1a/2 receptors", "experiment": "PKA luminescence assay (R-RLuc-N / C-RLuc-C) of Gαi signaling in HEK293T cells"}},
  "note": "“Also recorded” adds a separate entry of the source.",
  "data": [
    {"substance": "Ac-DDSDVWWGGADTDYADG-NH2 [APP17]", "values": [
      {"measurement": "eEPSC amplitude (in words)", "setting": "[1]", "value": "not APP17 was able to reduce the amplitudes of eEPSCs"},
      {"measurement": "Fig. 2c value, 10mM GABA", "setting": "GB1a/2 receptors [2]; 1 µM peptide with 10mM GABA, replicate 2", "value": 28.98},
      {"measurement": "Fig. 2c value, 10mM GABA", "setting": "GB1a/2 receptors [2]; 1 µM peptide with 10mM GABA, replicate 3", "value": 58.07},
      {"measurement": "Fig. 2c value, 10mM GABA", "setting": "GB1a/2 receptors [2]; 1 µM peptide with 10mM GABA, replicate 4", "value": 49.76},
      {"measurement": "Fig. 2c value, 10mM GABA", "setting": "GB1a/2 receptors [2]; 1 µM peptide with 10mM GABA, replicate 5", "value": 60.83},
      {"measurement": "Fig. 2c value, 10mM GABA", "setting": "GB1a/2 receptors [2]; 1 µM peptide with 10mM GABA, replicate 6", "value": 55.36},
      {"measurement": "Fig. 2c value, Basal", "setting": "GB1a/2 receptors [2]; 1 µM peptide, replicate 1", "value": 103.3},
      {"measurement": "Fig. 2c value, Basal", "setting": "GB1a/2 receptors [2]; 1 µM peptide, replicate 2", "value": 101},
      {"measurement": "Fig. 2c value, Basal", "setting": "GB1a/2 receptors [2]; 1 µM peptide, replicate 3", "value": 107.6},
      {"measurement": "Fig. 2c value, Basal", "setting": "GB1a/2 receptors [2]; 1 µM peptide, replicate 4", "value": 115.2},
      {"measurement": "Fig. 2c value, Basal", "setting": "GB1a/2 receptors [2]; 1 µM peptide, replicate 5", "value": 132.7},
      {"measurement": "Fig. 2c value, Basal", "setting": "GB1a/2 receptors [2]; 1 µM peptide, replicate 6", "value": 111.9},
      {"measurement": "Fig. 2c value, 10mM GABA", "setting": "GB1a/2 receptors [2]; 10 µM peptide with 10mM GABA, replicate 1", "value": 63.47},
      {"measurement": "Fig. 2c value, 10mM GABA", "setting": "GB1a/2 receptors [2]; 10 µM peptide with 10mM GABA, replicate 2", "value": 34.4},
      {"measurement": "Fig. 2c value, 10mM GABA", "setting": "GB1a/2 receptors [2]; 10 µM peptide with 10mM GABA, replicate 3", "value": 49.12},
      {"measurement": "Fig. 2c value, 10mM GABA", "setting": "GB1a/2 receptors [2]; 10 µM peptide with 10mM GABA, replicate 4", "value": 59.27},
      {"measurement": "Fig. 2c value, 10mM GABA", "setting": "GB1a/2 receptors [2]; 10 µM peptide with 10mM GABA, replicate 5", "value": 68.45},
      {"measurement": "Fig. 2c value, 10mM GABA", "setting": "GB1a/2 receptors [2]; 10 µM peptide with 10mM GABA, replicate 6", "value": 59.22},
      {"measurement": "Fig. 2c value, Basal", "setting": "GB1a/2 receptors [2]; 10 µM peptide, replicate 1", "value": 120},
      {"measurement": "Fig. 2c value, Basal", "setting": "GB1a/2 receptors [2]; 10 µM peptide, replicate 2", "value": 119.3},
      {"measurement": "Fig. 2c value, Basal", "setting": "GB1a/2 receptors [2]; 10 µM peptide, replicate 3", "value": 127.7},
      {"measurement": "Fig. 2c value, Basal", "setting": "GB1a/2 receptors [2]; 10 µM peptide, replicate 4", "value": 117.6},
      {"measurement": "Fig. 2c value, Basal", "setting": "GB1a/2 receptors [2]; 10 µM peptide, replicate 5", "value": 144.4},
      {"measurement": "Fig. 2c value, Basal", "setting": "GB1a/2 receptors [2]; 10 µM peptide, replicate 6", "value": 124.3},
      {"measurement": "FRET in the presence of 10 mM GABA (in words)", "setting": "GB1a/2 receptors [2]; 1 or 10 μM peptide + 10 mM GABA", "value": "no significant differences in FRET"},
      {"measurement": "FRET, basal, peptide alone (in words)", "setting": "GB1a/2 receptors [2]; 1 or 10 μM peptide without GABA", "value": "significantly increased instead of decreased FRET; also recorded: significant increase of FRET"},
      {"measurement": "effect on GABA potency (in words)", "setting": "GB1a/2 receptors [2]; LogEC50 of GABA dose-response", "value": "did not significantly alter GABA potency"},
      {"measurement": "K+ current", "setting": "[3]; 5 µM APP17, column graph (left), single values", "value": -1.055},
      {"measurement": "baclofen-induced K^+ currents in presence of peptide (in words)", "setting": "[3]; 5 µM peptide + 5 µM baclofen", "value": "elicited currents of similar amplitudes as baclofen alone"},
      {"measurement": "K^+ currents evoked by compound alone (in words)", "setting": "[3]; 5 µM, -70 mV", "value": "did not elicit any currents"},
      {"measurement": "GABA-mediated PKA inactivation in presence of peptide (in words)", "setting": "GB1a/2 receptors [4]; 10 μM peptide", "value": "GABA-mediated PKA inactivation was comparable"},
      {"measurement": "effect of peptide alone on luminescence/receptor activity (in words)", "setting": "GB1a/2 receptors [4]; 10 μM peptide", "value": "no agonistic, inverse agonistic, or antagonistic properties"},
      {"measurement": "receptor activity with APP695 in cis (in words)", "setting": "GB1a/2 receptors [4]; peptide, APP695 in cis", "value": "did not significantly alter GB1/2 receptor activity"}
    ]}
  ]
}
